Experimental data taken from EPA's ToxValDB 9.5.
≈ marks a conversion by molar mass, not a printed value. Where “and” joins values, the source holds several entries; their conditions need not be identical. Equal entries are not always repeated. One block for each molecule: values may come before it.

Tests used:
Rattus norvegicus [1] = experiment: LC0; higher = less toxic; conditions: acute; Inhalation; Wistar
Rattus norvegicus [2] = system: Rattus norvegicus
Rattus norvegicus [3] = conditions: subchronic; duration: 63 days; oral; gavage; M; Sprague-Dawley; Clinical Observation: Piloerection SalivationMatted fur + Body Weight Changes: decrease
Oryctolagus sp. [4] = experiment: LD0; higher = less toxic; conditions: acute; dermal; occlusive; New Zealand
Bacteria = conditions: In vitro / microbiological growth inhibition; Growth inhibition
Mus musculus [5] = conditions: chronic; duration: 26 weeks; inhalation; M/F; methemoglobin increase, spleen toxicity
Rattus norvegicus [6] = conditions: inhalation
Cavia porcellus [7] = conditions: chronic; duration: 26 weeks; inhalation; M/F; Guinea Pig; methemoglobin increase, spleen toxicity
Guinea Pig, Mouse, Rat = conditions: subchronic; inhalation; intermittent; Spleen: Pathology
Rattus norvegicus [8] = conditions: chronic; duration: 104 weeks; oral; diet; M/F; Crl:CD1; Immune, Hematologic
Mus musculus [9] = conditions: chronic; duration: 2 years; oral; diet; M/F; Tif MAG; Uterine pathology
Monkey = conditions: chronic; oral; F; Cyanomolgus; Altered serum hormones & menstrual cyclicity
Mammals [10] = experiment: LD100; higher = less toxic; conditions: acute; Oral
Rattus norvegicus [11] = experiment: LD100; higher = less toxic; conditions: acute
Cavia porcellus [12] = experiment: LD100; higher = less toxic; conditions: acute; oral; Guinea Pig
Mus musculus [13] = conditions: acute; oral
Mammals [14] = conditions: acute; Inhalation
Cavia porcellus [15] = conditions: acute; oral; Guinea Pig
Homo sapiens = conditions: duration: 10 days, oral, F, Withdrawal bleeding
Mus musculus [16] = conditions: uterotrophic; duration: 3 days; injection; subcutaneous; Active
Rattus norvegicus [17] = conditions: uterotrophic, Active
Oryctolagus sp. [18] = conditions: uterotrophic; injection; subcutaneous; Active
[19] = short-term, duration: 4 weeks, inhalation, M, Sprague-Dawley
[20] = short-term, duration: 4 weeks, inhalation, Sprague-Dawley

SMILES: Nc1ccccc1[N+](=O)[O-] [2-Nitrobenzenamine]
LC0 (Rattus norvegicus [1]): > 2530 mg/m3
NOAEL (Rattus norvegicus [2]; developmental, duration: 6 days, oral, gavage, Sprague-Dawley): 600 mg/kg-day
NOAEL (Rattus norvegicus [2]; reproduction developmental, duration: 6 days, oral, gavage, F, Sprague-Dawley): 100 mg/kg-day
LOAEL (Rattus norvegicus [2]; [19]): 93 mg/m3
NOAEL (Rattus norvegicus [2]; [19]): 9.8 mg/m3
LOAEL (Rattus norvegicus [2]; [20]): 73 mg/m3
NOAEL (Rattus norvegicus [2]; [20]): 30 mg/m3
NOAEL (Rattus norvegicus [2]; short-term, duration: 14 days, oral, gavage, Sprague-Dawley): ≥ 100 mg/kg-day
NOAEL (Rattus norvegicus [3]): 50 mg/kg-day
LD0 (Oryctolagus sp. [4]): > 7940 mg/kg

SMILES: CC1(C)S[C@@H]2[C@H](NC(=O)[C@H](N)c3ccc(O)cc3)C(=O)N2[C@H]1C(=O)O [Amoxicillin]
NOAEC (Bacteria): 0.1 µg/mL

SMILES: Nc1ccccc1 [Aniline]
NOAEL (Mus musculus [5]): 19 mg/m3
NOAEL (Rattus norvegicus [6]; chronic, duration: 26 weeks, M/F, methemoglobin increase, spleen toxicity): 19 mg/m3
LOAEL (Rattus norvegicus [6]; short-term, M, Mild spleen toxicity 2-Week): 64.7 mg/m3
NOAEL (Cavia porcellus [7]): 19 mg/m3
NOAEL (Guinea Pig, Mouse, Rat): 19 mg/m3
NOAEL (Rattus norvegicus [2]; short-term, duration: 2 weeks, inhalation): 38.1 mg/m3
LOAEL (Rattus norvegicus [8]): 7 mg/kg-day

SMILES: O=C(NC(=O)c1c(F)cccc1F)Nc1ccc(Cl)c(Oc2ncc(C(F)(F)F)cc2Cl)c1 [Fluazuron]
NOEL (Mus musculus [9]): 4.3 mg/kg-day

SMILES: C=C1C[C@H]2[C@@H]3C=C(C)C4=CC(=O)CC[C@]4(C)[C@H]3CC[C@]2(C)[C@@]1(OC(C)=O)C(C)=O [Melengestrol acetate]
LOEL (Monkey): 0.005 mg/kg-day

SMILES: C1COCCN1 [Morpholine]
LD100 (Mammals [10]): 1220 mg/kg
LD100 (Rattus norvegicus [11]; injection, Intraperitoneal): 400 mg/kg
LD100 (Rattus norvegicus [11]; oral): 100 mg/kg
LD100 (Cavia porcellus [12]): 100 mg/kg
LD50 (Mus musculus [13]): 525 mg/kg
LC50 (Mammals [14]): 12 µg/mL (≈ 138 µM)
LD50 (Rattus norvegicus [2]; acute, inhalation): ≥ 7.8 mg/L and ≤ 8.2 mg/L
LD50 (Cavia porcellus [15]): 900 mg/kg

LEL (Mus musculus [16]): 0.087 mg
LEL (gamma) (Mus musculus [16]): 30
LEL (Rattus norvegicus [17]; duration: 2 days, oral): 0.5 mg/kg-day
LEL (Rattus norvegicus [17]; duration: 4 days, injection, intraperitoneal): 50 mg/kg-day
LEL (Rattus norvegicus [17]; duration: 14 days, oral): 10 mg
LEL (Oryctolagus sp. [18]): 1 mg/day
SMILES: CC(=O)[C@H]1CC[C@H]2[C@@H]3CCC4=CC(=O)CC[C@]4(C)[C@H]3CC[C@]12C [Progesterone]
LOEL (Homo sapiens; Clinical): 3.3 mg/kg-day
LOEL (Homo sapiens; clinical): 3.3 mg/kg-day
